Measurements taken from US20170325451A1, “Use of Alkyl Gallate for Stimulating the Natural Defenses of Plants” (priority 2014, published 2017).

Legend:
tobacco leaf = test: Infiltration of tobacco leaf: chlorosis and synthesis of autofluorescent compounds; assay type: in vivo; details: 4 days after infiltration; for production of autofluorescent compounds around the infiltration sites: solutions 5 mmol·L^−1, infiltrated
Method: The plants are 8 weeks old, in the 12-15 leaf stage, cultured in a greenhouse or growing chamber.
50 μL of different EG solutions having molar concentrations (0.5 mmol·L^−1 to 5 mmol·L^−1) and of MG and PG solutions having a molar concentration of 5 mmol·L^−1 are infiltrated on the upper side of the tobacco leaf. The negative control is water; the positive control is salicylic acid (SA) at a molar concentration of […].
The different plants are photographed 4 days after the infiltration.
The negative control is water.

tobacco BY-2 cells = test: Alkalinization of the extracellular medium of tobacco BY-2 cell cultures; assay type: cell-based; details: for alkalinization of the extracellular medium: molar concentrations from 2 to 5 mmol·L^−1, BY-2 cultures
Method: The cell cultures are tobacco BY-2 cells maintained in cultures at 24° C., under stirring in darkness.
EG solutions (molar concentrations from 0.5 mmol·L^−1 to 5 mmol·L^−1), MG (1 mmol·L^−1 and 5 mmol·L^−1), or PG solutions (1 mmol·L^−1 and 5 mmol·L^−1) are added to tobacco BY-2 cell cultures at time T0. The pH is measured continuously (every 10 min) in the extracellular medium for 150 minutes.
The cell cultures are tobacco BY-2 cells maintained in cultures at 24° C., under stirring and in darkness.
Two GA solutions (0.5 mmol·L^−1 and 5 mmol·L^−1) are added to tobacco BY-2 cell cultures at time T0. The pH is measured continuously (every 10 min) in the extracellular medium for 150 minutes. EG solutions at different molar concentrations (0.5 mmol·L^−1 and 5 mmol·L^−1) are used as controls.

[1] = test system: transcripts coding for pathogenesis-related proteins (PR1, PR2, PR3, PR5) in tobacco leaves; test: Accumulation of PR transcripts in treated tobacco leaves (quantitative real-time PCR); assay type: in vivo
Method: The markers for the acquired local response (ALR) are tested for in the tobacco leaves that have been treated by the infiltration method (20 infiltration points per leaf/50 μL per infiltration) or by spraying (sufficient quantity to cover the leaf and obtain saturation, or approximately 2 mL per leaf) at a rate of 3 leaves per plant (non-senescent basal leaves). The leaves treated are separated from the plant 4 days after treatment and frozen immediately in liquid nitrogen for grinding and extraction of the total RNA. The RNA is extracted in the presence of CTAB buffer according to the protocol described by Chang et al. (1993) [Chang S, Puryear J, Cairney J (1993) A simple and efficient method for isolation RNA from pine trees. Plant mol Biol rep 11: 113-116]. The total RNA is purified and treated by DNase I (1 U) and RNase inhibitor (40 U) (Euromedex), in order to eliminate any possible contamination of the genomic DNA. The total RNA assay is run on the spectrophotometer (NanoDrop-1000). The integrity of the RNA is checked by agarose gel electrophoresis (1%) by detection of the ribosomal RNA subunits. The complementary DNA is synthesized from 1 μg of total RNA using Euroscript Reverse Transcriptase (Eurogentec). The PCR reactions are carried out with the Mastermix for SYBR GREEN kit (Eurogentec) using the iCycler iQ5 software (Bio-Rad). The specificity of the amplification is verified by melting curve analysis. The gene coding for EF-1α is used as an internal control. The quantification of the transcripts is calculated according to the mathematical model developed by Pfaffl (2001). [Pfaffl (2001) A new mathematical model for relative quantification in real time RT-PCR. Nucl. Acids res 29: 2002-7]. […]
4 days after the infiltration, the transcripts coding for pathogenesis-related proteins (PR proteins) are measured by quantitative real-time PCR. The total RNA is extracted from the infiltrated tobacco leaves. The cDNA is synthesized, and the transcripts of interest are quantified using specific primers of the genes PR1, PR2 and PR3.

[2] = 5 mmol·L^−1, infiltration, 4 days after treatment
[3] = 5 mmol·L^−1, spraying, 4 days after treatment
[4] = 50 mmol·L^−1, infiltration, 4 days after treatment
[5] = GA solutions 58.8 and 5.88 mmol·L^−1, infiltrated

`CCOC(=O)c1cc(O)c(O)c(O)c1` [EG, ethyl gallate] was tested, and the chlorosis (tobacco leaf; EG solutions 0.5 to 5 mmol·L^−1, 50 μL infiltrated on tobacco leaf, natural light) was “do not induce chlorosis”, the “production of autofluorescent compounds of the phytoalexin type around the infiltration sites” value (tobacco leaf; EG solutions 0.5 to 5 mmol·L^−1, infiltrated, UV 312 nm) was “extensive production of autofluorescent compounds” and the “alkalinization of the extracellular medium” value (“alkalinization” for short) (tobacco BY-2 cells) was “induce a rapid alkalinization”. The “Relative quantities of transcripts PR1” value [1, 2] was 6.7 ± 1.2, the “Relative quantities of transcripts PR2” value [1, 2] was 6.2 ± 1.7 and the “Relative quantities of transcripts PR3” value [1, 2] was 5.6 ± 1.3. For the same compound, the “Relative quantities of transcripts PR1” value [1, 3] was 15 ± 0.4, the “Relative quantities of transcripts PR2” value [1, 3] was 32 ± 4.6 and the “Relative quantities of transcripts PR3” value [1, 3] was 23 ± 7.1. The “Relative quantities of transcripts PR5” value [1, 3] was 14 ± 2.2, the “Relative quantities of transcripts PR1” value [1, 4] was 3.7 ± 1.3 and the “Relative quantities of transcripts PR2” value [1, 4] was 23.4 ± 3.3. The “Relative quantities of transcripts PR3” value [1, 4] was 30.4 ± 5.3 and the “accumulation of transcripts that are markers of the defense reactions: PR1, PR2, PR3, PR5” value ([1]; EG solutions 5 and 50 mmol·L^−1, infiltration or spraying) was “induce the accumulation of transcripts”.

In the case of `O=C(O)c1cc(O)c(O)c(O)c1` [GA, gallic acid, reference compound], the “autofluorescent zones around the infiltration zones” value (tobacco leaf; [5]) is reported as “not accompanied by autofluorescent zones”, the chlorosis (tobacco leaf; [5]) is reported as “induce strong chlorosis” and the “effect on the pH of the culture medium” value (tobacco BY-2 cells; GA solutions 0.5 and 5 mmol·L^−1, 150 minutes) is reported as “no effect on the pH”. For the same compound, the “accumulation of transcripts (PR1, PR2, PR3) compared to water” value ([1]; GA solution 5.88 mmol·L^−1, infiltration, 4 days after infiltration) was “does not induce a significant accumulation of transcripts”.

`COC(=O)c1cc(O)c(O)c(O)c1` [MG, methyl gallate] was tested, and the “production of autofluorescent compounds around the infiltration sites” value (tobacco leaf; UV 312 nm) was “induce the same phenomenon of production of autofluorescent compounds” and the “alkalinization” value (tobacco BY-2 cells) was “induce a rapid alkalinization”.

For `CCCOC(=O)c1cc(O)c(O)c(O)c1` [PG, propyl gallate], the “production of autofluorescent compounds around the infiltration sites” value (tobacco leaf; UV 312 nm) was “induce the same phenomenon of production of autofluorescent compounds” and the “alkalinization” value (tobacco BY-2 cells) was “induce a rapid alkalinization”.
